The text below walks through data of patent publication US11331314B2, “Amine substituted triazole derivatives and uses thereof” (Bayer Pharma Aktiengesellschaft, priority 2017, dated 2022).

One experiment concerns the target human V1a receptor (Homo sapiens, UniProt P37288). Kind of experiment: Cellular in vitro assay for determining vasopressin receptor activity, V1a receptor cell line (photoprotein luminescence). In kind it is cell-based. Conditions: for IC50: CHO cell line transfected with the human V1a receptor, agonist [Arg8]-vasopressin at EC50 concentration, read-out: IC50 hV1a; for ratio IC50 hV2/hV1a: selectivity ratio of the cellular IC50 values. In a few lines: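 CHO K1 cells stably expressing human V1a receptor with aequorin photoprotein, loaded overnight with coelenterazine. Compounds preincubated 10 min at various concentrations, then challenged with [Arg^8]-vasopressin at EC50 concentration. Calcium-driven luminescence read immediately; IC50 values derived.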

The target in the next experiment is T1, human V2 receptor (Homo sapiens, UniProt P30518).
T1 construct: expressed in transfected cells; host or cells: CHO K1 (ATCC) expressing firefly luciferase under a CRE-responsive promoter
T1 sequence (P30518 whole entry): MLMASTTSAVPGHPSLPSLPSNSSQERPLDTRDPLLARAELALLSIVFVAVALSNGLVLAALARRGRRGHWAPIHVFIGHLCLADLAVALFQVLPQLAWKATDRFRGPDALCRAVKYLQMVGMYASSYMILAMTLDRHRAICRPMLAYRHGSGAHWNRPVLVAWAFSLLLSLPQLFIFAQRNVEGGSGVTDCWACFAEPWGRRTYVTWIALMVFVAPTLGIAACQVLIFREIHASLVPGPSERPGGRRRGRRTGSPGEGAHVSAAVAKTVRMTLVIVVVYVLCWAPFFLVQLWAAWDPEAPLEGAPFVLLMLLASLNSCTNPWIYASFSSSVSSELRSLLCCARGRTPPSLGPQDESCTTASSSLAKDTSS
Kind of experiment: Cellular in vitro assay for determining vasopressin receptor activity, V2 receptor cell line (CRE-luciferase). The note with it: CHO cell line transfected with the human V2 receptor; agonist [Arg8]-vasopressin at EC50 concentration; read-out: IC50 hV2. The format is cell-based.

human V1a receptor, sequence (P37288 whole entry): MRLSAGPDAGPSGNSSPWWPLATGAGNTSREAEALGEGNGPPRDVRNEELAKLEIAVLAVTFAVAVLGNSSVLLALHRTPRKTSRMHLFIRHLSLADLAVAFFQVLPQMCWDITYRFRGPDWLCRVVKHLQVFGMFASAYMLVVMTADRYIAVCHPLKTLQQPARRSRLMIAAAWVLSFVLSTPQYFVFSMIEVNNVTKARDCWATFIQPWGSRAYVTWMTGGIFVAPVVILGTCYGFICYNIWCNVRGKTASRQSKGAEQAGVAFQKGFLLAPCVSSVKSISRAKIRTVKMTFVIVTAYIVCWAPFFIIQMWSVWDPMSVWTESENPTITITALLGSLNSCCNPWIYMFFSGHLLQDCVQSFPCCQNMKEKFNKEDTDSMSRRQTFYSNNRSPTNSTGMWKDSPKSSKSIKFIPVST

In the case of `COC(C)(C)CNc1nc(Cn2nc(-c3ccc(Cl)cc3)n(C[C@H](O)C(F)(F)F)c2=O)nn1-c1ccccc1Cl` [Example 4, 5-(4-Chlorophenyl)-2-({1-(2-chlorophenyl)-5-[(2-methoxy-2-methylpropyl)amino]-1H-1,2,4-triazol-3-yl}methyl)-4-[(2S)-3,3,3-trifluoro-2-hydroxypropyl]-2,4-dihydro-3H-1,2,4-triazol-3-one], the IC50 turned out to be 2.3 nM on human V1a receptor and 4.77 nM at human V2 receptor. The “ratio IC50 hV2/hV1a” value at human V1a receptor is 2.1.
The corresponding values for `CC(C)(CNc1nc(Cn2nc(-c3ccc(Cl)cc3)n(C[C@H](O)C(F)(F)F)c2=O)nn1-c1ccccc1Cl)C(N)=O` [Example 5, 3-{[1-(2-Chlorophenyl)-3-({3-(4-chlorophenyl)-5-oxo-4-[(2S)-3,3,3-trifluoro-2-hydroxypropyl]-4,5-dihydro-1H-1,2,4-triazol-1-yl}methyl)-1H-1,2,4-triazol-5-yl]amino}-2,2-dimethylpropanamide] are 0.64 nM, 3.8 nM and 6.0.
Regarding `NC(=O)[C@@H]1CC(F)(F)CN1c1nc(Cn2nc(-c3ccc(Cl)cc3)n(C[C@H](O)C(F)(F)F)c2=O)nn1-c1ccccc1Cl` [Example 9, 1-[1-(2-Chlorophenyl)-3-({3-(4-chlorophenyl)-5-oxo-4-[(2S)-3,3,3-trifluoro-2-hydroxypropyl]-4,5-dihydro-1H-1,2,4-triazol-1-yl}methyl)-1H-1,2,4-triazol-5-yl]-4,4-difluoro-L-prolinamide], on human V1a receptor, the IC50 worked out at 0.89 nM and the “ratio IC50 hV2/hV1a” value is 18.8. In addition, at human V2 receptor, the IC50 amounted to 16.7 nM.
The corresponding values for `NC(=O)[C@H]1CC(F)(F)CN1c1nc(Cn2nc(-c3ccc(Cl)cc3)n(C[C@H](O)C(F)(F)F)c2=O)nn1-c1ccccc1Cl` [Example 10, 1-[1-(2-Chlorophenyl)-3-({3-(4-chlorophenyl)-5-oxo-4-[(2S)-3,3,3-trifluoro-2-hydroxypropyl]-4,5-dihydro-1H-1,2,4-triazol-1-yl}methyl)-1H-1,2,4-triazol-5-yl]-4,4-difluoro-D-prolinamide] are 0.63 nM, 29.2 and 18.2 nM.
The corresponding values for `CC(C)(C)OC(=O)N1CCC(O)(CNc2nc(Cn3nc(-c4ccc(Cl)cc4)n(C[C@H](O)C(F)(F)F)c3=O)nn2-c2ccccc2Cl)CC1` [Example 21, tert-Butyl 4-({[1-(2-chlorophenyl)-3-({3-(4-chlorophenyl)-5-oxo-4-[(2S)-3,3,3-trifluoro-2-hydroxypropyl]-4,5-dihydro-1H-1,2,4-triazol-1-yl}methyl)-1H-1,2,4-triazol-5-yl]amino}methyl)-4-hydroxypiperidine-1-carboxylate] are 2 nM, 17.8 and 35.5 nM.
`O=c1n(Cc2nc(NCC3(O)CCNCC3)n(-c3ccccc3Cl)n2)nc(-c2ccc(Cl)cc2)n1C[C@H](O)C(F)(F)F` [Example 22, 5-(4-Chlorophenyl)-2-{[1-(2-chlorophenyl)-5-{[(4-hydroxypiperidin-4-yl)methyl]amino}-1H-1,2,4-triazol-3-yl]methyl}-4-[(2S)-3,3,3-trifluoro-2-hydroxypropyl]-2,4-dihydro-3H-1,2,4-triazol-3-one]: on human V1a receptor, the IC50 stood at 0.46 nM and the “ratio IC50 hV2/hV1a” value turned out to be 26.1. The IC50 on human V2 receptor came to 12 nM.
The corresponding values for `CC(F)(F)CNc1nc(Cn2nc(-c3ccc(Cl)cc3)n(C[C@H](O)C(F)(F)F)c2=O)nn1-c1ccccc1Cl` [Example 23, 5-(4-Chlorophenyl)-2-({1-(2-chlorophenyl)-5-[(2,2-difluoropropyl)amino]-1H-1,2,4-triazol-3-yl}methyl)-4-[(2S)-3,3,3-trifluoro-2-hydroxypropyl]-2,4-dihydro-3H-1,2,4-triazol-3-one] are 1.25 nM, 1.0 and 1.2 nM.

By IC50 is commonly meant the midpoint of a concentration-inhibition curve.
